The values that follow come from BindingDB's records for doi:10.1016/s0014-2999(03)02008-9 (Harvard University, 2003).

Among the targets are D(2) dopamine receptor (Rattus norvegicus, UniProt P61169); D(1A) dopamine receptor (Rattus norvegicus, UniProt P18901); D(1B) dopamine receptor (Homo sapiens, UniProt P21918).
The target of experiment [1] is T1, Alpha-2C adrenergic receptor (Rattus norvegicus, UniProt P22086).
T1 sequence (P22086 whole entry): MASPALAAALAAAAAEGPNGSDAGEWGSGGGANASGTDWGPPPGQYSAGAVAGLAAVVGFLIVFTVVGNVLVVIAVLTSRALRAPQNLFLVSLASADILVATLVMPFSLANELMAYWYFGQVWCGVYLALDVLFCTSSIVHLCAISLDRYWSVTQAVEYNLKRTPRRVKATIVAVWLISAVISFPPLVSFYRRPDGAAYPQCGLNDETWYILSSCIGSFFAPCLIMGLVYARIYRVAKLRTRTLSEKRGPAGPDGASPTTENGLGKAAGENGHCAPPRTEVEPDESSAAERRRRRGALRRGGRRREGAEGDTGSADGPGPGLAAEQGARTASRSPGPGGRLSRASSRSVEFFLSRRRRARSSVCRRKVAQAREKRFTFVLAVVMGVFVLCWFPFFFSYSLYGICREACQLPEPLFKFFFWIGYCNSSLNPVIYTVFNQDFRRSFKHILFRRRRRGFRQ

The target of experiment [2] is T2, Solute carrier family 22 member 2 (Rattus norvegicus, UniProt Q9R0W2).
T2 sequence (Q9R0W2 whole entry): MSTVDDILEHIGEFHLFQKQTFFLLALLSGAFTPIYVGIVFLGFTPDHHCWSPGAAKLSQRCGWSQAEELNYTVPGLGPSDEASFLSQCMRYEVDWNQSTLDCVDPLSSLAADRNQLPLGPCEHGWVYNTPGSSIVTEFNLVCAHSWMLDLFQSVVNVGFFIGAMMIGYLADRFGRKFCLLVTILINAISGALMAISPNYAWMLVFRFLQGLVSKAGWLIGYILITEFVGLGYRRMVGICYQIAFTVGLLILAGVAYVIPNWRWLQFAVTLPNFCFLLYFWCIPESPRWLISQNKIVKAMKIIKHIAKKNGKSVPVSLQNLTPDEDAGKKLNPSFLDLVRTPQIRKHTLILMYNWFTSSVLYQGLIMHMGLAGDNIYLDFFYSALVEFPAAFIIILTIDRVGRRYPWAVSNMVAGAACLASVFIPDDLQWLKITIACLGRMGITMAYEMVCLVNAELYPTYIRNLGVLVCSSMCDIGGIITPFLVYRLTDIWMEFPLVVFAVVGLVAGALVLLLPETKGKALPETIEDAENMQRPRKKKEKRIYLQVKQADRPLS

In experiment [3] the target is 5-hydroxytryptamine receptor 2A (Rattus norvegicus, UniProt P14842).
Sequence of 5-hydroxytryptamine receptor 2A (P14842 whole entry): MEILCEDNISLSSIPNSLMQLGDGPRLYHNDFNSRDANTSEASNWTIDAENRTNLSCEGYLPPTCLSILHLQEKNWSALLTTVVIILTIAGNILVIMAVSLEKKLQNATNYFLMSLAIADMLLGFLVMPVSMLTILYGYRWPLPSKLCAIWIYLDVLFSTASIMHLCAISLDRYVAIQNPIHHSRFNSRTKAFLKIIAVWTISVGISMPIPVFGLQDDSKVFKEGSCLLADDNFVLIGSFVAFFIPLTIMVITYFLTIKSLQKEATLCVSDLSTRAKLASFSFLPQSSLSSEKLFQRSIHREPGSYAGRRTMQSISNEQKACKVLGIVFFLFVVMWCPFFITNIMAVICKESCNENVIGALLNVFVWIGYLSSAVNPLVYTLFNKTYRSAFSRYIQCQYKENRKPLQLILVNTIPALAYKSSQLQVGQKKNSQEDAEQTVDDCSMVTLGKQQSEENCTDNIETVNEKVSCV

Sequence of D(2) dopamine receptor (P61169 whole entry): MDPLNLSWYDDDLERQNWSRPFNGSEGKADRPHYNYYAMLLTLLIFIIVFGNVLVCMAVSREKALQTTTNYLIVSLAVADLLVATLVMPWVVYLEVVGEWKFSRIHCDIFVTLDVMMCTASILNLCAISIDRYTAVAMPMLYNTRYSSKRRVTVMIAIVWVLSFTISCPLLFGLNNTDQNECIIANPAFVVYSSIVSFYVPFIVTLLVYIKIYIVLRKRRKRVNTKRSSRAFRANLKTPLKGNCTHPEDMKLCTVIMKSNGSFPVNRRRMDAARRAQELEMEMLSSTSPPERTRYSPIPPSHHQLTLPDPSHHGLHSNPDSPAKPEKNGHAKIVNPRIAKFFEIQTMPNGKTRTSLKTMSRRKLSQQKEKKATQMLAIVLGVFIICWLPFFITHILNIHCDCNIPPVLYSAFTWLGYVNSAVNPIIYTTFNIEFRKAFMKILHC
Sequence of D(1B) dopamine receptor (P21918 whole entry): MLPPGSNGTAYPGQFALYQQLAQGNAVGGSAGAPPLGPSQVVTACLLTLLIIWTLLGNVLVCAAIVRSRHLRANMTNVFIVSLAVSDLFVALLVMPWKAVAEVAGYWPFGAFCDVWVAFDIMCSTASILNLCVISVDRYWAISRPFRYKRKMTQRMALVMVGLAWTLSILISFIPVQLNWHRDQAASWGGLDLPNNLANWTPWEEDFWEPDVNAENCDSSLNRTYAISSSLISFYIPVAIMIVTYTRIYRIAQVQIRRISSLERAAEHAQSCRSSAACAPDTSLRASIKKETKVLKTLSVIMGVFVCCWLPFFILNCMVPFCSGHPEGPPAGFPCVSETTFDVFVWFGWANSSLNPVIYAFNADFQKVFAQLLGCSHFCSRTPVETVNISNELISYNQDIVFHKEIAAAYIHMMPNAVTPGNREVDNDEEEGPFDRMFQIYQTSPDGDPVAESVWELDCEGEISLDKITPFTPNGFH
Sequence of D(1A) dopamine receptor (P18901 whole entry): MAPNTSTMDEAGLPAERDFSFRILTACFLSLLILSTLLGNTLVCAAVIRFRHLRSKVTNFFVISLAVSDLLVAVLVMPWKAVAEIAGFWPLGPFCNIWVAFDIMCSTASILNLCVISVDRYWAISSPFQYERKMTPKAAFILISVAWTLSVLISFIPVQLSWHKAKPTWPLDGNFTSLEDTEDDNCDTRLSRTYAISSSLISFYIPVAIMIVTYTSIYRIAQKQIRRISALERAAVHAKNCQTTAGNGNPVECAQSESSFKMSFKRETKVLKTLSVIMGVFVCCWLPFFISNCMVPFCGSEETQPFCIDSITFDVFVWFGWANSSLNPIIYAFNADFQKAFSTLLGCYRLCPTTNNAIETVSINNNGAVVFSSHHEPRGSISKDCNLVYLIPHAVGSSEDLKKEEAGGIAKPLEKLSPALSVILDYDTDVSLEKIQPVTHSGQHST

By Ki is commonly meant a measure of affinity in units of concentration, obtained from inhibition or displacement. As for `Cc1cccc([C@H]2CN(C)CCc3c2cc(O)c(O)c3Cl)c1` [MCL-201], the Ki at D(2) dopamine receptor stood at 2140 nM; in experiment [1], 632 nM; at D(1A) dopamine receptor, 21.3 nM.
With `Cc1cccc([C@@H]2CN(C)CCc3c2cc(O)c(O)c3Cl)c1` [MCL-202], the Ki in experiment [2] was 3000 nM; in experiment [3], 88.6 nM; at D(2) dopamine receptor, 515 nM; at D(1B) dopamine receptor it was 1.53 nM; on D(1A) dopamine receptor it was 0.49 nM.
Take `Cc1cccc(C2CNCCc3c2cc(O)c(O)c3Br)c1` (stereo not drawn) [MCL-205]: the Ki in experiment [3] was 1300 nM; on D(2) dopamine receptor, 1070 nM; on D(1B) dopamine receptor, 13.7 nM; in experiment [1] it was 338 nM; at D(1A) dopamine receptor it was 4.41 nM.
On to `C=CCN1CCc2cc(O)c(O)cc2C(c2ccccc2)C1` (stereo not drawn), for which the Ki in experiment [3] was 3000 nM; in experiment [1], 632 nM.
In the case of `Cc1ccccc1C1CNCCc2c1cc(O)c(O)c2Br` (stereo not drawn) [MCL-216], the Ki in experiment [3] was determined as 398 nM; on D(2) dopamine receptor, 19.5 nM; at D(1B) dopamine receptor it was 1.95 nM; in experiment [1], 133 nM; at D(1A) dopamine receptor it was 1.81 nM.
The matching figures for `Cc1cccc(C2CNCCc3c2cc(O)c(O)c3Cl)c1` (stereo not drawn) [MCL-209]: 1200 nM, 5000 nM, 0.88 nM, 240 nM and 0.6 nM.
For the molecule `Oc1cc2c(c(Cl)c1O)CCNCC2c1ccccc1` (stereo not drawn) [NSC_1218], the figures for the Ki in experiment [3] and in experiment [1] were 995 nM and 509 nM, respectively.
As to `C=CCN1CCc2c(cc(O)c(O)c2Br)C(c2ccc(C)cc2)C1` (stereo not drawn) [MCL-213], the Ki in experiment [3] stood at 977 nM; on D(2) dopamine receptor, 1700 nM; in experiment [1], 1090 nM; at D(1A) dopamine receptor it was 128 nM.
Consider `C=CCN1CCc2c(cc(O)c(O)c2Cl)C(c2cccc(C)c2)C1` (stereo not drawn) [MCL-210], for which the Ki in experiment [3] came to 995 nM; at D(2) dopamine receptor, 119 nM; at D(1B) dopamine receptor, 9.94 nM; in experiment [1], 877 nM; at D(1A) dopamine receptor, 0.52 nM.
The matching figures for `Cc1cccc([C@@H]2CN(C)CCc3c2cc(O)c(O)c3Br)c1` [MCL-203]: 224 nM, 440 nM, 2.47 nM, 461 nM and 0.19 nM.
The matching figures for `Cc1cccc([C@H]2CN(C)CCc3c2cc(O)c(O)c3Cl)c1`: 266 nM, 920 nM, 7.56 nM, 295 nM and 1.18 nM.
`CN1CCc2c(cc(O)c(O)c2Br)[C@H](c2cccc(C(F)(F)F)c2)C1` [MCL-211]: the Ki in experiment [3] was 68.9 nM; on D(2) dopamine receptor it was 1050 nM; in experiment [1], 365 nM; on D(1A) dopamine receptor, 8.66 nM.
Consider `C=CCN1CCc2c(cc(O)c(O)c2Cl)C(c2ccccc2)C1` (racemic) [SKF 82958], for which the Ki was determined as 1610 nM in experiment [3] and 558 nM in experiment [1].
The matching figures for `Oc1cc2c(cc1O)C(c1ccccc1)CNCC2` (racemic) [(+/-)-SKF-38393]: greater than 10000 nM and 248 nM.
For `C=CCN1CCc2c(cc(O)c(O)c2Br)C(c2ccccc2C(F)(F)F)C1` (stereo not drawn) [MCL-217], the Ki (in experiment [3]; at D(2) dopamine receptor; in experiment [1]; on D(1A) dopamine receptor) was greater than 10000 nM in each case.
`Cc1ccc(C2CN(C)CCc3c2cc(O)c(O)c3Br)cc1` (stereo not drawn) [MCL-212]: the Ki in experiment [3] amounted to 124 nM; at D(2) dopamine receptor, 1030 nM; at D(1B) dopamine receptor, 4.36 nM; in experiment [1] it was 493 nM; at D(1A) dopamine receptor, 19.3 nM.
As to `Cc1cccc([C@@H]2CN(C)CCc3c(Cl)cc(O)cc32)c1` [MCL-230A], the Ki on D(1A) dopamine receptor is greater than 10000 nM.
As to `C=CCN1CCc2c(cc(O)c(O)c2Br)C(c2ccccc2C)C1` (stereo not drawn) [MCL-215], the Ki in experiment [3] turned out to be 742 nM; on D(2) dopamine receptor, 239 nM; in experiment [1], 414 nM; on D(1A) dopamine receptor, 37.1 nM.
Turning to `CN1CCc2cc(Cl)c(O)cc2C(c2ccccc2)C1` (stereo not drawn) [NSC_5018], the Ki stood at 10.8 nM in experiment [3] and 208 nM in experiment [1].
In the case of `Cc1ccc(C2CN(C)CCc3c2cc(O)c(O)c3Cl)cc1` (stereo not drawn) [MCL-206], the Ki in experiment [3] is 147 nM; on D(2) dopamine receptor, 362 nM; at D(1B) dopamine receptor, 3.96 nM; in experiment [1], 250 nM; at D(1A) dopamine receptor it was 1.93 nM.
Turning to `Cc1ccccc1C1CN(C)CCc2c1cc(O)c(O)c2Cl` (stereo not drawn) [NSC_0], the Ki in experiment [3] turned out to be 70.6 nM; on D(1B) dopamine receptor it was 2.32 nM; in experiment [1], 66.6 nM; on D(1A) dopamine receptor, 0.46 nM.
On to `Oc1cc2c(c(Br)c1O)CCNC[C@H]2c1cccc(C(F)(F)F)c1` [MCL-218], for which the Ki in experiment [3] is 992 nM; on D(2) dopamine receptor it was greater than 10000 nM; in experiment [1] it was 776 nM; on D(1A) dopamine receptor it was 1240 nM.
Consider `Cc1ccccc1C1CN(C)CCc2c1cc(O)c(O)c2Br` (stereo not drawn) [MCL-214], for which the Ki in experiment [3] was 45.8 nM; on D(2) dopamine receptor it was 409 nM; on D(1B) dopamine receptor it was 3.42 nM; in experiment [1], 186 nM; at D(1A) dopamine receptor it was 1.1 nM.
The matching figures for `C=CCN1CCc2c(cc(O)c(O)c2Br)C(c2cccc(C)c2)C1` (stereo not drawn) [MCL-204]: 598 nM, 83.8 nM, 12 nM, 709 nM and 0.11 nM.
